Test results as given in ChEMBL document CHEMBL3727356, “Therapeutic compounds and compositions” (2014).

How the values were obtained:
[1] = biological target: Pyruvate kinase PKLR (Homo sapiens, UniProt P30613, R532W); assay: Activation of PKR R532W mutant (unknown origin) incubated for 60 mins in presence of ADP, PEP and NADH by Spectraax microplate reader based assay
[2] = biological target: Pyruvate kinase PKLR (Homo sapiens, UniProt P30613); assay: Activation of wild type PKR (unknown origin) incubated for 60 mins in presence of ADP, PEP and NADH by Spectraax microplate reader based assay
Sequence of Pyruvate kinase PKLR (Homo sapiens, UniProt P30613) (P30613 whole entry): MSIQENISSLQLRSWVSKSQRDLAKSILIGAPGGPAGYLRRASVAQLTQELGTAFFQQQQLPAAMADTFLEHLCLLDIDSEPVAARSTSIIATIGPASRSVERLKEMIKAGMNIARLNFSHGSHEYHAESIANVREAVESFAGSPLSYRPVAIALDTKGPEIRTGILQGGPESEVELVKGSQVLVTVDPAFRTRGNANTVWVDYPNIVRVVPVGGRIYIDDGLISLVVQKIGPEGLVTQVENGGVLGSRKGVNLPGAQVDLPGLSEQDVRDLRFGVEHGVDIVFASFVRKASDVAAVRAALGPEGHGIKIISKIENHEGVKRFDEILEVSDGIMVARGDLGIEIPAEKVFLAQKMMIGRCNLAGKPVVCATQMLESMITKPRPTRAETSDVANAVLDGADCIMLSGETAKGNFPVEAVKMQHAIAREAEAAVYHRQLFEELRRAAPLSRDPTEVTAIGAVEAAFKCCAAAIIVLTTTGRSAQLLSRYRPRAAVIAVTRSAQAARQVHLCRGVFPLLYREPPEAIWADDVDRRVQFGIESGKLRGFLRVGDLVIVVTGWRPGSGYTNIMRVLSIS

Sequence of Pyruvate kinase PKLR (Homo sapiens, UniProt P30613, R532W) (P30613 whole entry R532W): as the sequence (P30613 whole entry) above, with R532W counted along it

| Structure (SMILES) | AC50 [1] | AC50 [2] |
| --- | --- | --- |
| O=C(c1ccc(NS(=O)(=O)c2cccc3cccnc23)cc1)N1CCC(O)(Cc2cccnc2)CC1 | < 100 nM | < 100 nM |
| C=C(C)CC1(O)CCN(C(=O)c2ccc(NS(=O)(=O)c3cccc4scnc34)cc2)CC1 | < 100 nM | < 100 nM |
| COc1cc(NS(=O)(=O)c2cccc3cccnc23)ccc1C(=O)N1CCC(O)(c2ccccc2Cl)CC1 | < 100 nM | < 100 nM |
| CC(F)(F)CCC1(O)CCN(C(=O)c2ccc(NS(=O)(=O)c3cccc4nccnc34)cc2OC(F)F)CC1 | < 100 nM | – |
| Cn1nccc1CC1(O)CCN(C(=O)c2ccc(NS(=O)(=O)c3cccc4scnc34)cc2)CC1 | < 100 nM | – |
| O=C(c1ccc(NS(=O)(=O)c2cccc3scnc23)cc1)N1CCC(O)(Cc2nc(Cl)cs2)CC1 | – | < 100 nM |
| CC(F)(F)CCC1(O)CCN(C(=O)c2ccc(NS(=O)(=O)c3cc(F)cc4sc(N)nc34)cc2F)CC1 | – | < 100 nM |
| O=C(c1ccc(NS(=O)(=O)c2cccc3nccnc23)cc1)N1CCC(O)(CC2CC2)CC1 | < 100 nM | < 100 nM |
| Cn1cc(CC2(O)CCN(C(=O)c3ccc(NS(=O)(=O)c4cccc5scnc45)cc3)CC2)cn1 | < 100 nM | – |
| CC(C)CC1(O)CCN(C(=O)c2ccc(NS(=O)(=O)c3cc(F)cc4scnc34)cc2)CC1 | < 100 nM | < 100 nM |
| O=C(c1ccc(NS(=O)(=O)c2ccc(F)c3cccnc23)cc1)N1CCC(O)(CC2CCC2)CC1 | < 100 nM | < 100 nM |
| O=C(c1ccc(NS(=O)(=O)c2cccc3ocnc23)cc1)N1CCC(O)(c2ccccc2Cl)CC1 | – | < 100 nM |
| O=C(c1ccc(NS(=O)(=O)c2cc(F)cc3cccnc23)cc1)N1CCC(O)(c2ccccc2)CC1 | < 100 nM | < 100 nM |
| O=C(c1ccc(NS(=O)(=O)c2cccc3ccoc23)cc1)N1CCC(O)(c2ccccc2Cl)CC1 | < 100 nM | < 100 nM |
| O=C(c1ccc(NS(=O)(=O)c2cccc3scnc23)cc1)N1CCC(O)(CC2CC2)CC1 | < 100 nM | < 100 nM |
| O=C(c1ncc(NS(=O)(=O)c2cccc3cccnc23)cn1)N1CCC(O)(c2ccccc2)CC1 | – | > 10000 nM |
| N#Cc1cccc(S(=O)(=O)Nc2ccc(C(=O)N3CCC(O)(Cc4ccccc4)CC3)cc2)c1 | – | > 10000 nM |
| O=C(c1ccc(NS(=O)(=O)c2cccc3cccnc23)cc1)N1CCC(O)(Cc2cccc(C(F)(F)F)c2)CC1 | < 100 nM | < 100 nM |
| O=C(c1ccc(NS(=O)(=O)c2cccc3cccnc23)cc1)N1CCC(O)(Cc2ccccn2)CC1 | < 100 nM | < 100 nM |
| O=C(c1ccc(NS(=O)(=O)c2cccnc2)cc1)N1CCC(O)(Cc2ccccc2)CC1 | > 10000 nM | – |
| O=C(c1ccc(NS(=O)(=O)c2ccc(F)c3cccnc23)cc1)N1CCC(O)(Cc2ccccc2C(F)(F)F)CC1 | < 100 nM | < 100 nM |
| O=C(c1ccc(NS(=O)(=O)c2cccc3ccccc23)cc1)N1CCC(O)(c2ccccc2Cl)CC1 | < 100 nM | < 100 nM |

Now from value to compound:

| AC50 [1] | AC50 [2] | Structure (SMILES) |
| --- | --- | --- |
| – | < 100 nM | O=C(c1ccc(NS(=O)(=O)c2cccc3cccnc23)cc1)N1CCC(O)(c2cccnc2F)CC1 |
| < 100 nM | < 100 nM | Cc1cccc(CC2(O)CCN(C(=O)c3ccc(NS(=O)(=O)c4cccc5cccnc45)cc3)CC2)n1 |
| < 100 nM | < 100 nM | Cc1nc(C2(O)CCN(C(=O)c3ccc(NS(=O)(=O)c4cccc5cccnc45)cc3)CC2)ccc1F |
| – | < 100 nM | O=C(c1ccc(NS(=O)(=O)c2cccc3cccnc23)cc1)N1CCC(O)(/C=C/C(F)F)CC1 |
| < 100 nM | < 100 nM | O=C(c1ccc(NS(=O)(=O)c2cccc3cccnc23)cc1)N1CCC(O)(c2ncccc2F)CC1 |
| – | < 100 nM | COCCC1(O)CCN(C(=O)c2ccc(NS(=O)(=O)c3cccc4cccnc34)cc2)CC1 |
| < 100 nM | < 100 nM | Cc1ccc(C2(O)CCN(C(=O)c3ccc(NS(=O)(=O)c4cccc5cccnc45)cc3)CC2)c(Cl)c1 |
| < 100 nM | – | CCOCC1(O)CCN(C(=O)c2ccc(NS(=O)(=O)c3cccc4cccnc34)cc2)CC1 |
| < 100 nM | < 100 nM | COc1ccccc1C1(O)CCN(C(=O)c2ccc(NS(=O)(=O)c3cccc4cccnc34)cc2)CC1 |
